In US11376257B2, “Generation of muscle lineage cells and therapeutic uses thereof” (GENEA BIOCELLS USA (HOLDINGS), INC., priority 2016, dated 2022):
Entries after “also recorded” stand apart in the source; their conditions may differ. Where two headings read alike, the source gives them in different places.

Experiments:
[1] = system: stem cell-derived myoblasts; conditions: for myotube morphology (visual) versus control cultures / production of myotubes with mature features (summary of FIGS. 10-18): 5 days; for production of myotubes with mature features (summary of FIGS. 10-18): different doses in Myotube Medium
Protocol: For screening, frozen satellite-like cells, prepared as described in Example 1, were thawed in a water bath at 37° C., resuspended in 3 mL of warm Myoblast Medium (Genea Biocells) and centrifuged at 400×g for 4 min. The supernatant was removed and the cell pellet was resuspended in 1 mL of medium for cell count. Cells were seeded at a density of 5,000 cells/cm^2 in collagen I-coated plastic flasks (Biocoat, BD Bioscience) and incubated at 5% CO2, 37° C. Every other day the culture medium was exchanged until cells reached a confluency of 80%, then cells were trypsinized, counted and seeded in collagen-coated 96-well plate (Biocoat) at density of 30,000 cells/cm^2 in Myoblast Medium using an automated liquid handling system (Fluent, Tecan Trading AG, Switzerland). Cells were incubated at 5% CO2, 37° C. and the medium was changed every other day until cells reached a confluence of 80%. The medium was exchanged for Myotube Medium (Genea Biocells) containing the test compounds. No further media changes were performed. In general, 3 to 6 concentrations were tested ranging from 3 μM to 1 nM; one plate per dilution was used. Media and DMSO control wells were placed randomly. No media changes were performed at this stage. After five days of myotube differentiation in the presence of compounds, cells were fixed with 10% formalin (Sigma) for 15 minutes at room temperature and washed once with phosphate-buffered saline (PBS). Next, cells were stained with an antibody specific for myosin heavy chain (Developmental Studies of Hybridoma Bank, University of Iowa, Iowa City; anti mouse A4.1519; dilution 1:1000) in PBS solution containing 5% bovine serum albumin (BSA, Sigma) and 0.3% Triton-X (Sigma) and incubated for 1 hour at room temperature. The cells were washed once with PBS and then incubated for 1 hour with a second antibody, Alexa Fluor 488-conjugated goat anti-mouse IgG (Invitrogen, 1:1000), and counterstained for nuclei with Hoechst 33342 (Molecular probes 1:5000) in a PBS solution containing 5% BSA and 0.3% Triton-X. Cells were washed with PBS prior microscopic analysis. Cells were imaged using an IN Cell Analyzer 6000 (GE-Healthcare) high content analysis system. Developer Toolbox v1.9.3 was utilized for image analysis to determine the number of nuclei, and the number of nuclei within MHC-positive myotubes. To evaluate the effect of compounds in either decrease or increase these measures untreated controls were set as the baseline.
Myoblasts were prepared or frozen myoblasts were thawed as described in Example 4. Once cultures reached confluency the medium was changed to Myotube Medium supplemented with 0.2, 0.5 or 1 μM CHIR-124 (Chk1 inhibitor). The cultures were left in an incubator at 37° C. and 5% CO2 for 5 days. […] Cells were fixed with 10% formalin (Sigma) for 15 minutes at room temperature and washed once with phosphate-buffered saline (PBS). Next, cells were stained for with antibodies specific for myosin heavy chain (Developmental Studies of Hybridoma Bank, University of Iowa, Iowa City; anti mouse A4.1519; dilution 1:1000) and MyoG (Santa Cruz, anti-rabbit; dilution 1:500) in PBS solution containing 5% bovine serum albumin (BSA, Sigma) and 0.3% Triton-X (Sigma) and incubated for 1 hour at room temperature. The cells were washed once with PBS and then incubated for 1 hour with a second antibody, Alexa Fluor 488-conjugated goat anti-mouse IgG and Alexa Fluor 647-conjugated anti-rabbit (both Invitrogen, 1:1000), and counterstained for nuclei with Hoechst 33342 (Molecular probes 1:5000) in a PBS solution containing 5% BSA and 0.3% Triton-X. Cells were washed with PBS prior to microscopic analysis. Cells were imaged using an IN Cell Analyzer 6000 (GE-Healthcare) high content analysis system.

[2] = system: myosin heavy chains (MHC) in Genea015 myoblast-derived myotubes; assay: Western blot analysis of myosin heavy chain types in myotubes; assay type: cell-based, human
Protocol: Genea015 (a disease-unaffected hESC cell line) myoblasts prepared by the method of Example 4 were thawed and seeded at 30,000 cells/cm^2 in Genea Biocells Myoblast Medium and incubated at 37° C., 5% CO2 until confluent (approximately 2 days). Then media was changed for Genea Biocells Myotube Medium either alone or with […] CHIR-124. Cell lysates for protein analysis were collected 5 days after treatment with CHIR-124 and quantified by BCA assay (ThermoFisher). Western blotting (Wes, Protein Simple) was performed to analyze the expression of myosin heavy chains (MHC) that are expressed during development and maturation of myotubes (total MHC, or total myosin heavy chain; eMHC, or embryonic myosin heavy chain; fMHC, or foetal myosin heavy chain; pMHC, or perinatal myosin heavy chain; and fast MHC, or fast myosin heavy chain, the most mature MHC found in myotubes). MHC expression was normalized to Vinculin for quantification.

[3] = system: Duchenne Muscular Dystrophy (DMD); assay: Treatment of a Duchenne Muscular Dystrophy patient with a checkpoint inhibitor; assay type: in vivo, human; conditions: child with DMD
Protocol: A child diagnosed with Duchenne Muscular Dystrophy (DMD) is seen in a clinic for weakness in their calves and thighs.
A child diagnosed with Duchenne Muscular Dystrophy (DMD) is seen in a clinic for weakness in their calves and thighs. To treat the muscle weakness, the patient is administered 100 mg once daily of CHIR-124 or 50-75 mg twice daily of CHIR-124 for two months. At the initial appointment, skin fibroblasts are obtained from the patient. The fibroblasts are subsequently used to produce induced pluripotent stem cells (iPSCs), which are then genetically modified to remove a mutation associated with DMD. The iPSCs are then differentiated into satellite cells in vitro; and the satellite cells, in turn, are differentiated into myoblasts in vitro. The differentiated myoblasts are then administered in […] doses to the patient's thighs and calves once a week during the two month period.

[4] = system: myoblasts from non-affected and genetic disease-affected hESC cell lines; assay: Myotube formation in disease-affected and non-affected hESC-derived myoblasts with or without CHIR-124; assay type: cell-based, human; conditions: 0.5 μM CHIR-124, three days in Myotube Medium, all cell lines (unaffected, Huntington's, DM1, DM2, SMA, FSH, DMD)
Protocol: Myoblasts prepared via the method of Example 4 from two non-affected hESC cell lines (Genea002 and Genes019) and six verified genetic disease-affected cell lines (Genea020, Genea066, Gen103, Gen158, Gen049 and Gen159, described in Table 6 below) were thawed in Genea Biocells Myoblast Medium in 96-well microtiter plates at 3.0×10^4 cells/cm2 and incubated at 10% CO2, 37° C. Genea020 was derived from an embryo affected with Huntington's disease (48CAG repeat expansion in the Huntingtin gene). Genea066 was derived from an embryo affected with Myotonic Dystrophy type II. Genea103 was derived from an embryo affected with Spinal Muscular Atrophy. Genea158 was derived from an embryo affected with Myotonic Dystrophy type I. Genea049 was derived from an embryo affected with FSH Muscular Dystrophy. Genea159 was derived from an embryo affected with Duchenne muscular dystrophy. All hESC cell lines were derived according to approved ethical protocols from donated embryos. Once cells (myoblasts) were confluent (approximately on day 3) media was changed for Genea Biocells Myotube Medium, either alone or with 0.5 μM CHIR-124 (CHIR). […] Images were analyzed with IN Cell Developer Toolbox software (GE Healthcare). […] The ratio between area of MHC and nuclei (um2) was calculated by measuring the area per field divided by the number of nuclei within that field.

[5] = 0.5 μM CHIR-124, 5 days, Genea015

talazoparib
myotube morphology (visual) versus control cultures ([1]; 0.1, 0.3 or 1 μM Talazoparib): formed more and longer myotubes than control cultures
production of myotubes with mature features (summary of FIGS. 10-18) [1]: produce myotubes with mature features

CNC(=O)c1cc(Oc2ccc(NC(=O)Nc3ccc(Cl)c(C(F)(F)F)c3)cc2)ccn1 [sorafenib]
myotube morphology (visual) versus control cultures ([1]; 0.1, 0.3 or 1 μM): formed more and longer and thicker myotubes than control cultures
production of myotubes with mature features (summary of FIGS. 10-18) [1]: produce myotubes with mature features

O=c1[nH]c2ccc(Cl)cc2c(NC2CN3CCC2CC3)c1-c1nc2ccccc2[nH]1 (centres unmarked) [CHIR-124]
expression of fast MHC (fast myosin heavy chain) [2, 5]: increases in expression
expression of total MHC normalized to Vinculin [2, 5]: increases expression
expression of pMHC (perinatal myosin heavy chain) ([2]; 0.5 M CHIR-124, 5 days, Genea015): increases in expression
expression of the most mature forms of MHC (FIG. 20) ([2]; in the presence of CHIR-124): increased expression
myotube morphology (visual) ([1]; 0.2 μM, 0.5 μM, or 1 μM CHIR-124, 5 days): formed thick, large myotubes
number of myotubes observed ([1]; 1 μM CHIR-124, 5 days): overall fewer myotubes were observed
larger average myotube diameter compared to myotubes formed in the absence of CHIR-124 ([1]; 0.2 or 0.5 μM CHIR-124, 5 days): > 80%
average number of nuclei per myotube ([1]; 0.2 or 0.5 μM CHIR-124, 5 days, 2 without CHIR-124): about 4
mean area of myotubes (FIG. 10D, lower panel) ([1]; CHIR-124, 5 days): Increases
myotube area (FIG. 10C, lower panel) ([1]; CHIR-124, 5 days): Increases
number of cells with larger myotube area (FIG. 10D, upper panel) ([1]; CHIR-124, 5 days): Increases
number of cells with more than one nucleus (FIG. 10B, lower panel) ([1]; CHIR-124, 5 days): Increases
production of myotubes with mature features (summary of FIGS. 10-18) [1]: produce myotubes with mature features
nuclei contained in many myotubes ([1]; exposed to CHIR-124, untreated controls few cells exceeding 10-12 nuclei): more than 30
symptoms of muscle weakness ([3]; 100 mg once daily or 50-75 mg twice daily for two months): symptoms of muscle weakness improve
muscle tone ([3]; CHIR-124 for two months combined with genetically modified iPSC-derived myoblasts once a week): improved muscle tone
myotube formation as MHC staining area normalized to cell number (nuclei) [4]: improved myotube formation; also recorded: improvements in differentiation
myotube formation as MHC staining area normalized to cell number (nuclei) ([4]; listed as CHIR124): higher

Cn1cnc2c(F)c(Nc3ccc(Br)cc3F)c(C(=O)NOCCO)cc21 [MEK162, binimetinib]
myotube morphology (visual) versus control cultures ([1]; 0.1, 0.3 or 1 μM): formed more and longer and thicker myotubes than control cultures
production of myotubes with mature features (summary of FIGS. 10-18) [1]: produce myotubes with mature features

CN1[C@@H]2CC[C@H]1C[C@@H](OC(=O)C(CO)c1ccccc1)C2 (some centres unmarked) [atropine]
myotube morphology (visual) versus control cultures ([1]; 0.2, 0.5 or 1 μM atropine): formed longer and thicker myotubes than control cultures
number of myotubes observed ([1]; cultures incubated with atropine): overall fewer myotubes were observed
production of myotubes with mature features (summary of FIGS. 10-18) [1]: produce myotubes with mature features

CC(C)c1noc(N2CCC(COc3ccc(-c4ccc(S(C)(=O)=O)cc4)nc3)CC2)n1 [GSK1292263]
myotube morphology (visual) versus control cultures ([1]; 0.1, 0.3 or 1 M): formed longer and thicker myotubes than control cultures
production of myotubes with mature features (summary of FIGS. 10-18) [1]: produce myotubes with mature features

CO[C@H]1C[C@@H]2CC[C@@H](C)[C@@](O)(O2)C(=O)C(=O)N2CCCC[C@H]2C(=O)O[C@H]([C@H](C)C[C@@H]2CC[C@@H](O)[C@H](OC)C2)CC(=O)[C@H](C)/C=C(\C)[C@@H](O)[C@@H](OC)C(=O)[C@H](C)C[C@H](C)/C=C/C=C/C=C/1C [rapamycin]
myotube morphology (visual) versus control cultures ([1]; 0.1, 0.3 or 1 μM): formed more and longer and thicker myotubes than control cultures
production of myotubes with mature features (summary of FIGS. 10-18) [1]: produce myotubes with mature features

CC[C@@H]1C(=O)OC[C@@H]1Cc1cncn1C [pilocarpine]
myotube morphology (visual) versus control cultures ([1]; 0.1, 03 or 1 μM pilocarpine): formed longer and thicker myotubes than control cultures
production of myotubes with mature features (summary of FIGS. 10-18) [1]: produce myotubes with mature features

COc1ccncc1C(=O)NC(=O)Nc1ccc(-c2ccccc2)c(C(F)(F)F)c1 [TC-G 1006]
myotube morphology (visual) versus control cultures ([1]; 0.1, 0.3 or 1 M): formed longer and thicker myotubes than control cultures
production of myotubes with mature features (summary of FIGS. 10-18) [1]: produce myotubes with mature features
